According to US7319153B2, “6,13-Bis(thienyl)pentacene compounds” (3M Innovative Properties Company, priority 2005, dated 2008):
Where two headings read alike, the source gives them in different places.

Assays:
[1] = small quantity extracted into refluxing 1,2-dichlorobenzene; cited from earlier work
[2] = isolation and purification; cited from earlier work
[3] = Solubility in tetrahydrofuran-d8 by proton NMR of saturated solutions; type: physicochemical
Protocol: The solubility of each compound prepared in Examples 1 to 4 was determined by the following method. The proton NMR spectra of saturated solutions of the compounds prepared in Examples 1 to 4 dissolved in tetrahydrofuran-d8 were compared with the proton NMR spectrum of a standard solution (i.e., known concentration) of the compound of Example 2, which was 2-hexyl-5-[ 13-(5-hexylthien-2-yl)pentacene-6-yl]thiophene, dissolved in tetrahydrofuran-d8. The same lot of tetrahydrofuran-d8 was used to make all of the solutions. The standard solution was prepared by dissolving 7.0 mg of the compound of Example 2 in 936 mg of tetrahydrofuran-d8 to give a 0.742 weight percent solution. Saturated solutions of the compounds of Examples 1 to 4 were prepared by placing an excess of the corresponding compound in approximately 1 mL of tetrahydrofuran-d8 and mixing for 30 minutes. The solutions were filtered and placed in an NMR tube and the corresponding proton NMR spectra were obtained.
For the standard (0.742 weight percent solution of the compound of Example 2), the NMR integration for the absorption at 8.59 ppm (the most down-field absorption corresponding to the four protons at positions 5, 7, 12 and 14) was compared to the absorption of the residual protio-tetrahydrofuran at 3.6 ppm to give a relative ratio of moles of the compound of Example 2 to moles of protio-tetrahydrofuran of 0.33. The molar ratio of the compound of Example 2 to tetrahydrofuran (protio- and deutero-) in the standard solution is 8.83×10^−4. This molar ratio (8.83×10^−4) divided by the relative ratio of moles of the compound of Example 2 to moles of protio-tetrahydrofuran (0.33) gave a factor of 2.68×10^−3. Multiplying this factor by the proton NMR integration for the saturated solutions of the corresponding compounds of Example 1 to 4 gave the ratio of moles of pentacene derivative to moles of tetrahydrofuran in the saturated solutions. This allowed the calculation of the concentrations for the various solutions of compounds of Examples 1 to 4 as shown in the table below.

[4] = Stability in tetrahydrofuran (endoperoxide formation by proton NMR); type: physicochemical; conditions: for Mole percent impurity—120 hours: endoperoxide in tetrahydrofuran-d8 after 120 hours, protected from light; for Mole percent impurity—120 hours / Mole percent increase: room temperature; for Mole percent impurity—initial: endoperoxide in tetrahydrofuran-d8 solution; for Mole percent increase: increase of endoperoxide over 120 hours in tetrahydrofuran-d8, protected from light
Protocol: The solution stabilities of the compounds of Examples 1 to 4 were determined by proton NMR analysis of saturated solutions of the corresponding compounds in tetrahydrofuran-d8. Comparing the proton NMR integration of the four protons at positions 5, 7, 12 and 14 (8.51 ppm to 8.69 ppm) to the integration of the four corresponding protons from the endoperoxide (the major and only detectable decomposition product, 7.93 ppm to 7.98 ppm), the percent increase of this impurity was determined for each compound. The solutions were prepared by dissolving the corresponding compound in tetrahydrofuran-d8 and the proton NMR spectra were obtained to determine the initial concentration of endoperoxide for each sample. The solutions were allowed to stand protected from light at room temperature (i.e., 20° C. to 25° C.) for 120 hours. Proton NMR spectra of the aged samples were taken and the increase in absorption of the endoperoxide was used to calculate the data shown in Table 3. The formation of the endoperoxide is shown in the following reaction for compounds of Formula II.

[5] = saturated solution in tetrahydrofuran-d8, mixed 30 minutes, filtered

Row | SMILES | time to bleaching [1] | air and light sensitivity [2] | Molarity in THF [3, 5] | Moles of compound/moles of THF [3, 5] | Weight percent in THF [3, 5] [weight percent] | Mole percent impurity—120 hours [4] [mole percent] | Mole percent impurity—initial [4] [mole percent] | Mole percent increase [4] [mole percent] | Molarity in THF [3] | Moles of compound/moles of THF [3]
1 | c1ccc2cc3cc4cc5ccccc5cc4cc3cc2c1 [pentacene] | less than 5 minutes |  |  |  |  |  |  |  |  | 
2 | C[Si](C)(C)c1cc2cc3cc4cc5cc([Si](C)(C)C)c([Si](C)(C)C)cc5cc4cc3cc2cc1[Si](C)(C)C [2,3,9,10-tetrakis(trimethylsilyl)pentacene] |  | highly air- and light-sensitive |  |  |  |  |  |  |  | 
3 | c1csc(-c2c3cc4ccccc4cc3c(-c3cccs3)c3cc4ccccc4cc23)c1 [Example 1, 2-(13-thien-2-ylpentacene-6-yl)thiophene] |  |  | 6.58 × 10^−3 | 5.35 × 10^−4 | 0.327 | 21.26 | 5.66 | 15.60 |  | 
4 | C[Si](C)(C)c1ccc(-c2c3cc4ccccc4cc3c(-c3ccc([Si](C)(C)C)s3)c3cc4ccccc4cc23)s1 [Example 3, trimethyl(5-{13-[5-(trimethylsilyl)thien-2-yl]pentacen-6-yl}thien-2-yl)silane] |  |  | 3.54 × 10^−2 | 2.94 × 10^−3 | 2.34 | 4.76 | 1.96 | 2.80 |  | 
5 | c1csc(-c2ccc(-c3c4cc5ccccc5cc4c(-c4ccc(-c5cccs5)s4)c4cc5ccccc5cc34)s2)c1 [Example 4, 5-[13-(2,2′-bithien-5-yl)pentacen-6-yl]-2,2′-bithiophene] |  |  |  |  | 0.135 | 6.54 | 2.91 | 3.63 | 1.98 × 10^−3 | 1.61 × 10^−4
6 | CCCCCCc1ccc(-c2c3cc4ccccc4cc3c(-c3ccc(CCCCCC)s3)c3cc4ccccc4cc23)s1 [Example 2, 2-hexyl-5-[13-(5-hexylthien-2-yl)pentacene-6-yl]thiophene] |  |  | 1.22 × 10^−1 | 1.08 × 10^−2 | 8.35 | 10.71 | 2.91 | 7.80 |  | 
